Reference: paper PMC7367283, “A PIP2 substitute mediates voltage sensor-pore coupling in KCNQ activation” (Communications Biology, 2020)

Biological target: pseudo wild-type KCNQ1 (with mutations C214A/G219C/C331A) (Homo sapiens, UniProt P51787, C214A/C331A/G219C)
Experiment: Voltage-clamp fluorometry (VCF) of pseudo WT KCNQ1 in Xenopus oocytes
Format: cell-based
Conditions: for G/Gmax Mean: Fig. 3g; for F/Fmax Mean: Fig. 3i
Excerpt: We employed voltage-clamp fluorometry (VCF) to measure the effects of CP1 on voltage-sensor activation. The emission (F) of Alexa 488 C5 maleimide attached to the S3–S4 linker, at residue C219, of the pseudo wild-type KCNQ1 (with mutations C214A/G219C/C331A) reported VSD movements in response to voltage changes, while the ionic current reported pore opening[45] (Fig. 3f, h). Similar to the WT KCNQ1, the G–V relation of the pseudo WT KCNQ1 shifted to negative voltages by −53.3 ± 3.1 mV in the presence of 10 µM CP1 (Fig. 3g). […] However, the F–V relationship shifted only by −17.3 ± 3.6 mV. […] (Supplementary Fig. 3). […] It is also apparent that at extreme negative voltages ≤ −130 mV, where the voltage sensor seemed not activated (F ~ 0, Fig. 3i), a fraction of the channels was constitutively open (G > 0, Fig. 3b, g).
Oocytes were labeled on ice for 45 min with 10 μM Alexa 488 C5 maleimide (Molecular Probes, Eugene, OR) in high K^+ solution (in mM: 98 KCl, 1.8 CaCl2, and 5 HEPES, pH 7.6). Then the cells were washed with ND96 solution and kept on ice until recording. A CA-1B amplifier was used to record whole-oocyte currents in ND96 solution. Fluorescent signals were recorded simultaneously using a Pin20A photodiode (OSI Optoelectronics, CA), filtered using a FITC filter cube (Leica, Germany, for Alexa 488), and then amplified using a patch-clamp amplifier (EPC10, HEKA, Germany).

O=S(=O)([O-])Oc1c(-c2sc3c(ccc4cccc(Cl)c43)c2OS(=O)(=O)[O-])[nH]c2ccc(Br)cc12.[Na+].[Na+] [CP1, DISODIUM 5-BROMO-2-[9-CHLORO-3-(SULFONATOOXY) NAPHTHO [1,2-B] THIEN-2-YL]-1H-INDOL-3-YL SULFATE]
shift of F–V relationship (VSD activation) (10 µM CP1): −17.3 ± 3.6 mV | shift of G–V relation (10 µM CP1): −53.3 ± 3.1 mV | G/Gmax Mean (10 µM CP1, 0 mV): 0.7707 | G/Gmax Mean (10 µM CP1, 10 mV): 0.7200 | G/Gmax Mean (10 µM CP1, 20 mV): 0.6664 | G/Gmax Mean (10 µM CP1, 40 mV): 0.5879 | G/Gmax Mean (10 µM CP1, -10 mV): 0.8231 | G/Gmax Mean (10 µM CP1, -20 mV): 0.8668 | G/Gmax Mean (10 µM CP1, -30 mV): 0.9194 | G/Gmax Mean (10 µM CP1, -40 mV): 0.9570 | G/Gmax Mean (10 µM CP1, -50 mV): 0.9837 | G/Gmax Mean (10 µM CP1, -60 mV): 1.0000 | G/Gmax Mean (10 µM CP1, -70 mV): 0.9888 | G/Gmax Mean (10 µM CP1, -80 mV): 0.9295 | G/Gmax Mean (10 µM CP1, -90 mV): 0.8170 | G/Gmax Mean (10 µM CP1, -100 mV): 0.6596 | G/Gmax Mean (10 µM CP1, -110 mV): 0.4846 | G/Gmax Mean (10 µM CP1, -120 mV): 0.3240 | G/Gmax Mean (10 µM CP1, -130 mV): 0.2412 | G/Gmax Mean (10 µM CP1, -140 mV): 0.1631 | F/Fmax Mean (10 µM CP1, 0 mV): 0.9059 | F/Fmax Mean (10 µM CP1, 10 mV): 0.9298 | F/Fmax Mean (10 µM CP1, 20 mV): 0.9639 | F/Fmax Mean (10 µM CP1, 30 mV): 0.9526 | F/Fmax Mean (10 µM CP1, 40 mV): 1.0000 | F/Fmax Mean (10 µM CP1, -10 mV): 0.8465 | F/Fmax Mean (10 µM CP1, -20 mV): 0.8444 | F/Fmax Mean (10 µM CP1, -30 mV): 0.7943 | F/Fmax Mean (10 µM CP1, -40 mV): 0.7337 | F/Fmax Mean (10 µM CP1, -50 mV): 0.6357 | F/Fmax Mean (10 µM CP1, -60 mV): 0.5712 | F/Fmax Mean (10 µM CP1, -70 mV): 0.4588 | F/Fmax Mean (10 µM CP1, -80 mV): 0.4066 | F/Fmax Mean (10 µM CP1, -90 mV): 0.2751 | F/Fmax Mean (10 µM CP1, -100 mV): 0.1745 | F/Fmax Mean (10 µM CP1, -110 mV): 0.1186 | F/Fmax Mean (10 µM CP1, -120 mV): 0.0457 | F/Fmax Mean (10 µM CP1, -130 mV): 0.0520 | F/Fmax Mean (10 µM CP1, -140 mV): 0.0265
